Results taken from patent publication US20230263822A1, “MODULATION OF FACTOR 11 EXPRESSION” (Ionis Pharmaceuticals, Inc., priority 2008, published 2023).
Strand notation (5' to 3'): a small letter for the sugar, then the base; units joined by * are phosphorothioate-linked, units joined directly phosphodiester-linked; [ ] holds rarer units or linkages, { } end groups; capitals alone tell only the bases. e = 2'-O-(2-methoxyethyl) (MOE); [5mC] = 5-methylcytosine; d = 2'-deoxy (DNA)

Legend:
[1] = Hematology assays in cynomolgus monkeys (Example 46); format: in vivo
Experimental: (§1) Groups, each consisting of two male and two female monkeys, were injected subcutaneously with 25 mg/kg of ISIS 416850, ISIS 449709, ISIS 445522, ISIS 449710, ISIS 449707, ISIS 449711, ISIS 449708, 416858, and ISIS 445531. Antisense oligonucleotide was administered to the monkeys at 25 mg/kg three times per week for week 1 and 25 mg/kg twice per week for weeks 2 to 8. A control group, consisting of two male and two female monkeys was injected subcutaneously with PBS according to the same dosing regimen. Body weights were taken 14 days and 7 days before the start of treatment and were then measured weekly throughout the treatment period. Blood samples were collected 14 days and 5 days before the start of treatment and subsequently several times during the dosing regimen for PT and aPTT measurements, and measurement of various hematologic factors. On day 55, the monkeys were euthanized by exsanguination while under deep anesthesia, and organs harvested for further analysis.

[2] = tested on: IL-1β, IL-6, IFN-γ, TNF-α, IL-8, MIP-1α, MCP-1, MIP-1β, RANTES; test: Cytokine and chemokine assays in cynomolgus monkeys (Example 46); format: in vivo
Experimental: as §1
Blood samples obtained from all monkey groups were sent to Pierce Biotechnology (Woburn, Mass.) for measurements of chemokine and cytokine levels. Levels of IL-1β, IL-6, IFN-γ, and TNF-α were measured using the respective primate antibodies and levels of IL-8, MIP-1α, MCP-1, MIP-1β and RANTES were measured using the respective cross-reacting human antibodies. Measurements were taken 14 days before the start of treatment and on day 55, when the monkeys were euthanized.

[3] = day-14 (before start of treatment)

Substance: ISIS 445531: 5-8-5 or 6-8-6 MOE microwalk gapmer (Table 44) (antisense eG*eG*e[5mC]*eA*eT*dT*dG*dG*dT*dG*d[5mC]*dA*d[5mC]*eA*eG*eT*eT*eT)
- HCT ([1]; Day 17): 43%
- MCH ([1]; Day 17): 22.1 pg
- MCHC ([1]; Day 17): 29.5 g/dL
- MCV ([1]; Day 17): 75 fL
- RBC count ([1]; Day 17): 5.8e+06 µL⁻¹
- WBC count ([1]; Day 17): 17000 µL⁻¹
- hemoglobin content ([1]; Day 17): 12.7 g/dL
- monocytes ([1]; Day 17): 3.4%
- neutrophils ([1]; Day 17): 85%
- platelet count ([1]; Day 17): 380 ×100/μL
- HCT ([1]; Day 31): 41%
- MCH ([1]; Day 31): 22.0 pg
- MCHC ([1]; Day 31): 29.7 g/dL
- MCV ([1]; Day 31): 75 fL
- RBC count ([1]; Day 31): 5.6e+06 µL⁻¹
- WBC count ([1]; Day 31): 17000 µL⁻¹
- hemoglobin content ([1]; Day 31): 12.3 g/dL
- monocytes ([1]; Day 31): 4.1%
- neutrophils ([1]; Day 31): 116%
- platelet count ([1]; Day 31): 376 ×100/μL
- HCT ([1]; Day 45): 41%
- MCH ([1]; Day 45): 21.6 pg
- MCHC ([1]; Day 45): 29.0 g/dL
- MCV ([1]; Day 45): 75 fL
- RBC count ([1]; Day 45): 5.5e+06 µL⁻¹
- WBC count ([1]; Day 45): 20000 µL⁻¹
- hemoglobin content ([1]; Day 45): 12.0 g/dL
- monocytes ([1]; Day 45): 4.4%
- neutrophils ([1]; Day 45): 93%
- platelet count ([1]; Day 45): 345 ×100/μL
- HCT ([1]; Day 55): 41%
- MCH ([1]; Day 55): 21.7 pg
- MCHC ([1]; Day 55): 29.6 g/dL
- MCV ([1]; Day 55): 74 fL
- RBC count ([1]; Day 55): 5.6e+06 µL⁻¹
- WBC count ([1]; Day 55): 15000 µL⁻¹
- hemoglobin content ([1]; Day 55): 12.1 g/dL
- monocytes ([1]; Day 55): 4.1%
- neutrophils ([1]; Day 55): 91%
- platelet count ([1]; Day 55): 319 ×100/μL
- HCT ([1]; Day-5): 42%
- MCH ([1]; Day-5): 22.2 pg
- MCHC ([1]; Day-5): 30.0 g/dL
- MCV ([1]; Day-5): 74 fL
- RBC count ([1]; Day-5): 5.7e+06 µL⁻¹
- WBC count ([1]; Day-5): 15000 µL⁻¹
- hemoglobin content ([1]; Day-5): 12.6 g/dL
- monocytes ([1]; Day-5): 2.2%
- neutrophils ([1]; Day-5): 80%
- platelet count ([1]; Day-5): 416 ×100/μL
- HCT ([1]; Day-14): 41%
- MCH ([1]; Day-14): 22.2 pg
- MCHC ([1]; Day-14): 30.9 g/dL
- MCV ([1]; Day-14): 72 fL
- RBC count ([1]; Day-14): 5.7e+06 µL⁻¹
- WBC count ([1]; Day-14): 20000 µL⁻¹
- hemoglobin content ([1]; Day-14): 12.6 g/dL
- monocytes ([1]; Day-14): 1.3%
- neutrophils ([1]; Day-14): 60%
- platelet count ([1]; Day-14): 379 ×100/μL
- IFN-γ level ([2]; day 55): 15 pg/mL
- IL-1ß level ([2]; day 55): 155 pg/mL
- IL-6 level ([2]; day 55): 1 pg/mL
- IL-8 level ([2]; day 55): 293 pg/mL
- MCP-1 level ([2]; day 55): 339 pg/mL
- MIP-1ß level ([2]; day 55): 84 pg/mL
- MIP-1α level ([2]; day 55): 12 pg/mL
- RANTES level ([2]; day 55): 5935 pg/mL
- TNF-α level ([2]; day 55): 16 pg/mL
- IFN-γ level [2, 3]: 68 pg/mL
- IL-1ß level [2, 3]: 101 pg/mL
- IL-6 level [2, 3]: 2 pg/mL
- IL-8 level [2, 3]: 83 pg/mL
- MCP-1 level [2, 3]: 317 pg/mL
- MIP-1ß level [2, 3]: 22 pg/mL
- MIP-1α level [2, 3]: 25 pg/mL
- RANTES level [2, 3]: 7825 pg/mL
- TNF-α level [2, 3]: 9 pg/mL
